Where a name gives a salt, the structure may show the parent alone.
Legend:
[1] = Metabolic stability in cryopreserved hepatocytes, human; format: in vitro ADME
Method: (§1) Hepatocyte metabolic stability was evaluated in cryopreserved hepatocytes from CD-1 mice (Lot#: EXR), Sprague Dawley rats (Lot#: OSQ), beagle dogs (Lot#: ZMB), cynomolgus monkeys (Lot#: KMS), and human donors (Lot#: AEL) obtained from Bioreclamation IVT, LLC (Shanghai, China). […] Samples were withdrawn from the reaction mixture at 0, 15, 30, 60, and 90 min and were quenched with stop solution (acetonitrile containing 200 ng/mL tolbutamide and 200 ng/mL labetalol as internal standards). A cocktail of 7-ethoxycoumarin (Lot#: I1825085) was used as the positive control for the assay. The analytical plates were sealed and stored at 4 °C until LC-MS/MS analysis.
(§2) The remaining percentages of test articles after incubation were calculated by the following equations:(7) %Remainingat Appointed Time=Peak Area Ratios of Test Article versus Internal Standard at Appointed Time/Peak Area Ratios of Test Article versus Internal Standard 0 min
(§3) We used the equation of first order kinetics to calculate T1/2 and CLint:
(§4) Equation of first-order kinetics:(8) Ct=C0·e^−k·t when Ct=1/2C0,T1/2=ln2/k=0.693/k (9) CLint hep=k/million cells per mL (10) CLint liver=CLint hep×Liver weight g/kg body weight×hepatocellularity

[2] = Metabolic stability in cryopreserved hepatocytes, rat; format: in vitro ADME, Sprague Dawley rat
Method: as §1, §2, §3, §4

[3] = Metabolic stability in cryopreserved hepatocytes, mouse; format: in vitro ADME, CD-1 mouse
Method: as §1, §2, §3, §4

[4] = Metabolic stability in cryopreserved hepatocytes, dog; format: in vitro ADME, beagle dog
Method: as §1, §2, §3, §4

[5] = Metabolic stability in cryopreserved hepatocytes, monkey; format: in vitro ADME, cynomolgus monkey
Method: as §1, §2, §3, §4

[6] = Plasma stability, dog plasma; format: in vitro ADME; settings: beagle
Method: (§5) The pooled frozen plasma was thawed in a water bath at 37 °C prior to the experiment. Plasma was centrifuged at 4000 rpm for 5 min, and the clots, if any, were removed. Using an Apricot automation workstation, blank plasma (98 μL/well) was added to six 96-well reaction plates (Blank, T0, T10, T30, T60, and T120). An Apricot automation workstation was used to add working solution (2 μL/well, 100 μM) to all reaction plates except the Blank plate (T0, T10, T30, T60, and T120). All reaction plates containing mixtures of compound and plasma were incubated at 37 °C in a water bath. At the end of the incubation, 400 μL of stop solution (200 ng/mL tolbutamide and 200 ng/mL labetalol in acetonitrile) was added to precipitate the protein, and the mixture was mixed thoroughly. Samples were then vortexed and centrifuged (20 min, 4000 rpm, 4 °C). After centrifugation, an Apricot automation workstation was used to transfer 50 μL of supernatant into 100 μL of HPLC water. […] Each bioanalysis plate was sealed and shaken for 10 min prior to LC-MS/MS analysis. The % remaining test compound after incubation in plasma was calculated using the following equation:(11) % Remaining= PAR at appointed incubation time/PAR at T0 time×100 where PAR is the peak area ratio of analyte versus internal standard (IS).
(§6) The appointed incubation time points are T0 (0 min), Tn (n = 0, 10, 30, 60, 120 min).

[7] = Plasma stability, rat plasma; format: in vitro ADME
Method: as §5, §6

[8] = Metabolite identification by LC-UV-MS^n in human liver microsomes; format: in vitro ADME; design: key: +: metabolite was detected in liver microsomes; -: metabolite was not detected in liver microsomes; settings: BEA 10 µM, 37 °C, 60 min
Method: (§7) The positive control, 7-ethoxycoumarin (7-EC) at 10 µM, was run concurrently to assess Phase I metabolic activities in liver microsomes. […] After incubation, the samples were analyzed by LC-UV-MS (Table S7). The structures of the metabolites were proposed based on the interpretation of their MS and MS2 data. The results are presented in Table 6 and Figure 6. %Total=Peak Area of a Releted Component/Peak Area of Total Releted Component×100%

[9] = Metabolite identification by LC-UV-MS^n in rat liver microsomes; format: in vitro ADME; design: key: +: metabolite was detected in liver microsomes; -: metabolite was detected in liver microsomes; settings: BEA 10 µM, 37 °C, 60 min
Method: as §7

[10] = Metabolite identification by LC-UV-MS^n in mouse liver microsomes; format: in vitro ADME; design: key: +: metabolite was detected in liver microsomes; -: metabolite was detected in liver microsomes; settings: BEA 10 µM, 37 °C, 60 min
Method: as §7

[11] = Metabolite identification by LC-UV-MS^n in dog liver microsomes; format: in vitro ADME; design: key: +: metabolite was detected in liver microsomes; -: metabolite was detected in liver microsomes; settings: BEA 10 µM, 37 °C, 60 min
Method: as §7

[12] = Metabolite identification by LC-UV-MS^n in monkey liver microsomes; format: in vitro ADME; design: key: +: metabolite was detected in liver microsomes; -: metabolite was not detected in liver microsomes; settings: BEA 10 µM, 37 °C, 60 min
Method: as §7

[13] = Plasma stability, monkey plasma; format: in vitro ADME; settings: cynomolgus
Method: as §5, §6

[14] = Plasma stability, human plasma; format: in vitro ADME
Method: as §5, §6

[15] = Plasma stability, mouse plasma; format: in vitro ADME
Method: as §5, §6

CYP2C9 = molecular target: T1, CYP2C9 (Homo sapiens, UniProt P11712); format: in vitro ADME; settings: CYP2C9 in HLM; positive control, final conc. 3 μM in Table S1
T1 construct: tissue Corning or Xenotech; host or cells: human liver microsomes (mixed gender)
T1 sequence (P11712 whole entry): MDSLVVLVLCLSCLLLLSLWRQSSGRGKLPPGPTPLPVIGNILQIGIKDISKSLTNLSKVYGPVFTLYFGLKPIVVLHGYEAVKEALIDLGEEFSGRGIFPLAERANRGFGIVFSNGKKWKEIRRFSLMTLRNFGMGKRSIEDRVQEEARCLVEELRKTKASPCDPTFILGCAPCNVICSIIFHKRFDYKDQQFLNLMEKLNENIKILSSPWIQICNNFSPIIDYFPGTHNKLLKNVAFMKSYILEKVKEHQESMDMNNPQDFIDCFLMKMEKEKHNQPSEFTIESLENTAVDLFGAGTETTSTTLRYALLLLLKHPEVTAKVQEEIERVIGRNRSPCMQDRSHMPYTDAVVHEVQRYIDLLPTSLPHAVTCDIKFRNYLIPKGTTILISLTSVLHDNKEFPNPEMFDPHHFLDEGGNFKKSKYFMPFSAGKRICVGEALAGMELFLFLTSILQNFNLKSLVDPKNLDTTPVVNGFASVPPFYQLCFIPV
Method: A mixture of microsomes and substrates for each CYP isozyme were prepared individually in 100 mM potassium phosphate buffer at pH 7.4. […] The reaction mixture was incubated for 10 min, followed by the addition of 20 μL of 10 mM NADPH solution. […] At the appropriate time point, we terminated the reaction by adding 400 µL of cold stop solution (200 ng/mL tolbutamide and labetalol in acetonitrile). The samples were centrifuged at 4000 rpm for 20 min to precipitate the protein, and then detected by LC/MS/MS. XL fit was used to plot the percent of vehicle control versus the test compound concentrations and for nonlinear regression analysis of the data. The IC50 values were determined using 3- or 4-parameter logistic equations.

[16] = Metabolic stability in liver microsomes, RLM; format: in vitro ADME, Sprague Dawley rat
Method: (§8) All incubations were performed at 37 °C in 100 mM potassium phosphate buffer in an orbital incubator. Various nicotinamide adenine dinucleotide phosphate (NADPH) concentrations were tried to optimize the method. […]. The positive control compound testosterone was incubated in parallel with the BEA samples. Each bioanalysis plate was sealed and shaken for 10 min prior to LC-MS/MS analysis (Table S6). […]

[17] = Metabolic stability in liver microsomes, MLM; format: in vitro ADME, CD-1 mouse
Method: (§9) All incubations were performed at 37 °C in 100 mM potassium phosphate buffer in an orbital incubator. Various nicotinamide adenine dinucleotide phosphate (NADPH) concentrations were tried to optimize the method. […] Samples were withdrawn from the reaction mixture at different times (5, 15, 30, 45, and 60 min), and the reaction was terminated using acetonitrile. […] Each bioanalysis plate was sealed and shaken for 10 min prior to LC-MS/MS analysis (Table S6).

[18] = Metabolic stability in liver microsomes, DLM; format: in vitro ADME, beagle dog
Method: as §8

[19] = Metabolic stability in liver microsomes, CLM; format: in vitro ADME, cynomolgus monkey
Method: as §9

[20] = Plasma protein binding (HTdialysis equilibrium dialysis), rat plasma; format: in vitro ADME; settings: Sprague Dawley, pH 7.4, read-out: Fu (%), unbound fraction
[21] = Plasma protein binding (HTdialysis equilibrium dialysis), mouse plasma; format: in vitro ADME, CD-1 mouse; settings: CD-1, pH 7.4, read-out: Fu (%), unbound fraction
[22] = Plasma protein binding (HTdialysis equilibrium dialysis), dog plasma; format: in vitro ADME; settings: beagle, pH 7.4, read-out: Fu (%), unbound fraction
[23] = Plasma protein binding (HTdialysis equilibrium dialysis), monkey plasma; format: in vitro ADME, cynomolgus monkey; settings: pH 7.4, read-out: Fu (%), unbound fraction
CYP3A4/5 = settings: ref 20 (Li Mei's group); cited from earlier work
[24] = 120 min, read-out: Remaining % (T = 120 min)

Molecule: CCOc1ccc2ccc(=O)oc2c1 [7-Ethoxycoumarin]
- half-life at 1 μM ([1]; cryopreserved hepatocytes (suspension), human hepatocytes, 0.5 × 10^6 cells/mL, 1 μM, n = 2): 41.6 min
- remaining at 1.5 h, 1 μM ([1]; cryopreserved hepatocytes in suspension, human hepatocytes, 90 min, read-out: Remaining % (T = 90 min)): 21.9%
- CLint scaled at 1 μM ([1]; cryopreserved hepatocytes in suspension, scaled from human hepatocyte CLint, read-out: CLint (liver)): 5.56 L/h/kg
- CLint (hep) (μL/min/10^6) ([1]; human hepatocytes): 33.3 μL/min/10^6
- half-life at 1 μM ([2]; Sprague Dawley, cryopreserved hepatocytes (suspension), rat hepatocytes, 0.5 × 10^6 cells/mL, 1 μM, n = 2): 18.2 min
- remaining at 1.5 h, 1 μM ([2]; Sprague Dawley, cryopreserved hepatocytes in suspension, rat hepatocytes, 90 min, read-out: Remaining % (T = 90 min)): 2.1%
- CLint scaled at 1 μM ([2]; Sprague Dawley, cryopreserved hepatocytes in suspension, scaled from rat hepatocyte CLint, read-out: CLint (liver)): 21.3 L/h/kg
- CLint (hep) (μL/min/10^6) ([2]; rat hepatocytes): 76.0 μL/min/10^6
- half-life at 1 μM ([3]; CD-1, cryopreserved hepatocytes (suspension), mouse hepatocytes, 0.5 × 10^6 cells/mL, 1 μM, n = 2): < 7.5 min
- CLint scaled at 1 μM ([3]; CD-1, cryopreserved hepatocytes in suspension, scaled from mouse hepatocyte CLint, read-out: CLint (liver)): > 132 L/h/kg
- CLint (hep) (μL/min/10^6) ([3]; mouse hepatocytes): >184.8 μL/min/10^6
- Remaining % (T = 90 min) ([3]; mouse hepatocytes, 90 min): 0.0%
- half-life at 1 μM ([4]; beagle, cryopreserved hepatocytes in suspension, dog hepatocytes, 0.5 × 10^6 cells/mL, 1 μM, n = 2): 5.4 min
- CLint scaled at 1 μM ([4]; beagle, cryopreserved hepatocytes in suspension, scaled from dog hepatocyte CLint, read-out: CLint (liver)): 106 L/h/kg
- CLint (hep) (μL/min/10^6) ([4]; dog hepatocytes): 256.4 μL/min/10^6
- Remaining % (T = 90 min) ([4]; dog hepatocytes, 90 min): 0.0%
- half-life at 1 μM ([5]; cryopreserved hepatocytes in suspension, monkey hepatocytes, 0.5 × 10^6 cells/mL, 1 μM, n = 2): 13.6 min
- CLint scaled at 1 μM ([5]; cynomolgus monkey, cryopreserved hepatocytes in suspension, scaled from monkey hepatocyte CLint, read-out: CLint (liver)): 22 L/h/kg
- CLint (hep) (μL/min/10^6) ([5]; monkey hepatocytes): 102.0 μL/min/10^6
- Remaining % (T = 90 min) ([5]; monkey hepatocytes, 90 min): 0.0%

Molecule: CC(=O)Oc1ccc(C(c2ccc(OC(C)=O)cc2)c2ccccn2)cc1 [Bisacodyl]
- half-life at 2 μM ([6]; 37 °C, n = 2): 7.2 min
- remaining at 2 h, 2 μM [6, 24]: 0%

Molecule: CCOC(=O)[C@H](CCc1ccccc1)N[C@@H](C)C(=O)N1CCC[C@H]1C(=O)O.O=C(O)/C=C\C(=O)O [Enalapril maleate salt]
- T1/2 ([7]; 37 °C, n = 2): 12.8 min
- Remaining % (T = 120 min) ([7]; 120 min): 0.2%

Molecule: CC(C)[C@H]1OC(=O)[C@H](Cc2ccccc2)N(C)C(=O)[C@@H](C(C)C)OC(=O)[C@H](Cc2ccccc2)N(C)C(=O)[C@@H](C(C)C)OC(=O)[C@H](Cc2ccccc2)NC1=O [M15]
- Detected in liver microsomes: Human [8]: +
- Detected in liver microsomes: Rat [9]: +
- Detected in liver microsomes: Mouse [10]: +
- Detected in liver microsomes: Dog [11]: +
- Detected in liver microsomes: Monkey [12]: +

Molecule: CCN(CC)CCOC(=O)c1ccc(N)cc1 [Procaine Hydrochloride]
- half-life at 2 μM ([13]; 37 °C, n = 2): 4.4 min
- remaining at 2 h, 2 μM [13, 24]: 0%

Molecule: CC(C)[N+](C)(CCOC(=O)C1c2ccccc2Oc2ccccc21)C(C)C [Propantheline bromide]
- half-life at 2 μM ([14]; 37 °C, n = 2): 10.3 min
- remaining at 2 h, 2 μM [14, 24]: 0%
- half-life at 2 μM ([15]; CD-1, 37 °C, n = 2): 36.6 min
- remaining at 2 h, 2 μM ([15]; CD-1, 120 min, read-out: Remaining % (T = 120 min)): 9.7%

Molecule: Nc1ccc(S(=O)(=O)Nc2ccnn2-c2ccccc2)cc1 [Sulfaphenazole]
- Activity (% VC) (CYP2C9): 20.0 % VC

Molecule: C[C@]12CC[C@H]3[C@@H](CCC4=CC(=O)CC[C@@]43C)[C@@H]1CC[C@@H]2O [Testosterone]
- Remaining % (T = 60 min) ([16]; RLM, 60 min): 0.0%
- microsomal CLint at 1 μM ([16]; Sprague Dawley, rat, microsomes, RLM, read-out: CLint(mic)): 1370 µL/min/mg
- CLint scaled at 1 μM ([16]; Sprague Dawley, rat, microsomes, scaled from RLM CLint(mic)): 148 L/h/kg
- half-life at 1 μM ([17]; CD-1, mouse, liver microsomes, MLM, 1 μM, NADPH, n = 2): 3.9 min
- microsomal CLint at 1 μM ([17]; CD-1, mouse, liver microsomes, MLM, read-out: CLint(mic)): 359 µL/min/mg
- CLint scaled at 1 μM ([17]; CD-1, mouse, liver microsomes, scaled from MLM CLint(mic)): 85.3 L/h/kg
- Remaining % (T = 60 min) ([17]; MLM, 60 min): 0.0%
- T1/2 ([18]; DLM, 1 μM, NADPH, n = 2): 20.0 min
- microsomal CLint at 1 μM ([18]; beagle, dog, microsomes, DLM, read-out: CLint(mic)): 69.2 µL/min/mg
- CLint scaled at 1 μM ([18]; beagle, dog, microsomes, scaled from DLM CLint(mic)): 5.98 L/h/kg
- Remaining % (T = 60 min) ([19]; CLM, 60 min): 0.0%
- half-life at 1 μM ([19]; cynomolgus monkey, liver microsomes, CLM, 1 μM, NADPH, n = 2): 5 min
- microsomal CLint at 1 μM ([19]; cynomolgus monkey, liver microsomes, CLM, read-out: CLint(mic)): 277 µL/min/mg
- CLint scaled at 1 μM ([19]; cynomolgus monkey, liver microsomes, scaled from CLM CLint(mic)): 22.4 L/h/kg

Molecule: CC(=O)CC(c1ccccc1)c1c(O)c2ccccc2oc1=O (stereo not shown) [warfarin]
- fraction unbound at 5 h [20]: 0.0052
- fraction unbound at 5 h [21]: 0.0271
- fraction unbound at 5 h [22]: 0.0246
- fraction unbound at 5 h [23]: 0.0084

Molecule: Beauvericin
- Inhibition mechanism, CYP3A4 (CYP3A4/5): mix-type

— PMC9320654 (Toxins, 2022)
